In brackets after ≈: the same amount, converted by molar mass. Activity calls are given as the source filed them. The rule behind the calls is not given here.
Tests used:
Type in all cases: functional
P388 = assay: Cytotoxicity against mouse P388 cells after 72 hrs by MTT assay; conditions: for IC50: P388, 72 h, read-out: ID50 (the source's name)
CCRF-CEM = assay: Cytotoxicity against human CCRF-CEM cells after 72 hrs by SRB assay; conditions: for IC50: read-out: ID50 (the source's name)
B16 = assay: Cytotoxicity against mouse B16 cells after 72 hrs by SRB assay; conditions: for IC50: B16, 72 h, read-out: ID50 (the source's name)
SW707 = assay: (§1) Cytotoxicity against human SW707 cells after 72 hrs by SRB assay
[1] = as §1; conditions: SW707, 72 h, read-out: ID50 (the source's name)

Row | Compound | IC50 (P388) [µg/mL] | IC50 (CCRF-CEM) [µg/mL] | Activity (B16) | Activity (SW707) | Activity (P388) | Activity (CCRF-CEM) | IC50 (B16) [µg/mL] | IC50 [1] [µg/mL]
1 | C#CCSc1c(SCC#CCO)cnc2ccccc12 | 13.3 (≈ 44.4 µM) | 2.7 (≈ 9.02 µM) | inactive | inactive | – | – | – | –
2 | C#CCSc1cnc2ccccc2c1SCC#CCSc1c(SCC#C)cnc2ccccc12 | – | – | inactive | inactive | inactive | inactive | – | –
3 | OCC#CCSc1cnc2ccccc2c1[Se]CC#CCBr | 1.6 (≈ 3.64 µM) | 0.2 (≈ 0.455 µM) | – | – | – | – | 4.6 (≈ 10.5 µM) | 2.8 (≈ 6.37 µM)
4 | OCC#CCSc1cnc2ccccc2c1Cl | 2.4 (≈ 9.1 µM) | 4.1 (≈ 15.5 µM) | inactive | – | – | – | – | 6.2 (≈ 23.5 µM)
5 | C#CCSc1cnc2ccccc2c1[Se]CC#CCBr | 1.2 (≈ 2.93 µM) | 0.3 (≈ 0.733 µM) | – | – | – | – | 4.2 (≈ 10.3 µM) | 2.2 (≈ 5.38 µM)
6 | COc1c(SCC#CCO)cnc2ccccc12 | 23.2 (≈ 89.5 µM) | 22 (≈ 84.8 µM) | inactive | – | – | – | – | 67.4 (≈ 260 µM)
7 | OCC#CCSc1cnc2ccccc2c1SCC#CCO | 5.7 (≈ 17.3 µM) | 2.6 (≈ 7.89 µM) | – | – | – | – | 42.2 (≈ 128 µM) | 32 (≈ 97.1 µM)
8 | C[Se]c1c(SCC#CCO)cnc2ccccc12 | 19.8 (≈ 61.4 µM) | 2.1 (≈ 6.52 µM) | – | – | – | – | 5.8 (≈ 18 µM) | 3.5 (≈ 10.9 µM)
9 | C#CCSc1cnc2ccccc2c1[Se]CC#CCO | 3.1 (≈ 8.95 µM) | 3.2 (≈ 9.24 µM) | – | – | – | – | 3.6 (≈ 10.4 µM) | 3.3 (≈ 9.53 µM)
10 | CSc1cnc2ccccc2c1SCC#CCO | 3.1 (≈ 11.3 µM) | 2.3 (≈ 8.35 µM) | – | – | – | – | 49.8 (≈ 181 µM) | 34.9 (≈ 127 µM)
11 | C#CCSc1cnc2ccccc2c1SCC#CC[Se]c1c(SCC#CC)cnc2ccccc12 | 30.7 (≈ 53.5 µM) | 30.3 (≈ 52.8 µM) | inactive | – | – | – | – | 43 (≈ 75 µM)
12 | CC#CCSc1cnc2ccccc2c1SCC#CCSc1c(SCC#CC)cnc2ccccc12 | – | – | inactive | inactive | inactive | inactive | – | –
13 | OCC#CCSc1cnc2ccccc2c1SCC#CCBr | 43.2 (≈ 110 µM) | 0.6 (≈ 1.53 µM) | – | – | – | – | 4.9 (≈ 12.5 µM) | 36.2 (≈ 92.3 µM)
14 | CSc1cnc2ccccc2c1SCC#CCSc1c(SC)cnc2ccccc12 | – | – | inactive | inactive | inactive | inactive | – | –
15 | OCC#CCSc1cnc2ccccc2c1[Se]CC#CCO | 4.1 (≈ 10.9 µM) | 1.4 (≈ 3.72 µM) | – | – | – | – | 4.3 (≈ 11.4 µM) | 26.6 (≈ 70.7 µM)
16 | C#CC[Se]c1c(SCC#CCO)cnc2ccccc12 | 2.5 (≈ 7.22 µM) | 1.9 (≈ 5.49 µM) | – | – | – | – | 6.8 (≈ 19.6 µM) | 3.8 (≈ 11 µM)
17 | CSc1c(SCC#CCO)cnc2ccccc12 | 32.3 (≈ 117 µM) | 13.9 (≈ 50.5 µM) | inactive | – | – | – | – | 69.3 (≈ 252 µM)
18 | CSc1cnc2ccccc2c1[Se]CC#CCO | 2.6 (≈ 8.07 µM) | 0.5 (≈ 1.55 µM) | – | – | – | – | 4.2 (≈ 13 µM) | 3.4 (≈ 10.5 µM)
19 | C#CCSc1cnc2ccccc2c1SCC#CCO | 4 (≈ 13.4 µM) | 3.2 (≈ 10.7 µM) | – | – | – | – | 54.7 (≈ 183 µM) | 42.6 (≈ 142 µM)
